Each molecule was assayed against human mGlu5 receptor (Homo sapiens (Human), UniProt P41594) (assay: [3H]-M-MPEP radioligand binding assay). Conditions: competition with [3H]-M-MPEP, membranes of HEK293 cells transfected with human mGlu5.
Description: Biological Methods Membrane Preparation
cDNA encoding the human mGlu5 receptor was transfected into HEK293 cells using the transfection reagent Genejuice (Novagen). Forty-eight hours after transfection, cells were harvested and washed twice with ice cold phosphate-buffered saline. The pellet was re-suspended in ice-cold buffer containing 20 mM Tris-HCl, pH 7.4, 1 mM EDTA and homogenised with an Ultraturax for 30 s at maximum speed. The suspension was centrifuged (800×g for 5 min at 4° C.) and supernatant collected. Supernatant was centrifuged (40,000×g for 30 min at 4° C.). The resulting pellet was re-suspended and frozen at −80° C. before use. Protein concentration was determined using the BCA protein assay method (Merck Chemicals Ltd).
[^3H]-M-MPEP Radioligand Binding Assay
After thawing, membrane homogenates were re-suspended in the binding buffer (50 mM HEPES pH 7.5, 150 mM NaCl) to a final assay concentration of 2.5 μg protein per well. […] At the end of the incubation, membranes were filtered onto a 96-well GF/B filter pre-incubated with 0.1% polyethylenimine, with a Tomtec cell harvester and washed 5 times with 0.5 mL distilled water. Non-specific binding (NSB) was measured in the presence of 0.1 mM MPEP hydrochloride (Tocris bioscience, catalogue number 1212). Radioactivity on the filter was counted (1 min) on a microbeta counter after addition of 50 μL of scintillation fluid. […] IC50 values were derived from the inhibition curve and the equilibrium dissociation constant (Ki) values were calculated using the Cheng-Prussoff equation.

Sequence of human mGlu5 receptor (P41594 21-1212): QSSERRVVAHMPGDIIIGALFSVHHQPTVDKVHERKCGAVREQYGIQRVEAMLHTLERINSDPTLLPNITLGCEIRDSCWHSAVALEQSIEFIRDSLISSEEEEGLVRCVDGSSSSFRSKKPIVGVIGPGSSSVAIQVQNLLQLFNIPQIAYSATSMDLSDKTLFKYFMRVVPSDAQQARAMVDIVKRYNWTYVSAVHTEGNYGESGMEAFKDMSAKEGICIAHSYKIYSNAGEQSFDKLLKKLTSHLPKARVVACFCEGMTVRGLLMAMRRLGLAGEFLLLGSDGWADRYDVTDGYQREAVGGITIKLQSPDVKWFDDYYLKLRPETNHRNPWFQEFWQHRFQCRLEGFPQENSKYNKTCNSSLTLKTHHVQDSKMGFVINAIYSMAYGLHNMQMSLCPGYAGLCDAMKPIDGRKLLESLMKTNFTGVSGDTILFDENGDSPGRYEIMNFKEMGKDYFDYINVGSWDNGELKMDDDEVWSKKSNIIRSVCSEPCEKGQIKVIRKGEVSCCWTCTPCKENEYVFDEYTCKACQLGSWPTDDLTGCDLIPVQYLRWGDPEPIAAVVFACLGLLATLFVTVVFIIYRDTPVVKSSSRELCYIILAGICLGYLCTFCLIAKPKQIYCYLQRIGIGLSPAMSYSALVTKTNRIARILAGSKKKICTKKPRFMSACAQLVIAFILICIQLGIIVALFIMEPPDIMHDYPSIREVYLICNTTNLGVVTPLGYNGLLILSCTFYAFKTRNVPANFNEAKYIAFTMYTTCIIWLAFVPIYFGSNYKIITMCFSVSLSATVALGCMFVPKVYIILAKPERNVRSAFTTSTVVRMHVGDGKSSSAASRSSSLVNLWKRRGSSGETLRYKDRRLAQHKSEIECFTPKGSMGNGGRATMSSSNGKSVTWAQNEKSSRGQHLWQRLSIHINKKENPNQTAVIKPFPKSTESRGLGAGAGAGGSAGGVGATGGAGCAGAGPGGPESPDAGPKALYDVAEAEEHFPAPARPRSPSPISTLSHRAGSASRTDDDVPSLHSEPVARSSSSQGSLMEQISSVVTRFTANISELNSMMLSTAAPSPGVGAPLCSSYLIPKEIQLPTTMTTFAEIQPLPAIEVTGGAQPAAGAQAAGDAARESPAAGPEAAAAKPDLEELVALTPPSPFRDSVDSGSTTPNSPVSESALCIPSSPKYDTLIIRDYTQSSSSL

pKi avg | SMILES
8.37 | COc1cc(C#N)cc(-c2cc(-c3ccc(F)cn3)ncn2)c1 [Example 25, 3-[6-(5-fluoropyridin-2-yl)pyrimidin-4-yl]-5-methoxybenzonitrile]
7.98 | N#Cc1cc(C#N)cc(-c2cc(-c3ccccn3)ncn2)c1 [Example 21, 5-[6-(pyridin-2-yl)pyrimidin-4-yl]benzene-1,3-dicarbonitrile]
8.67 | Cc1ccc(-c2cc(-c3cc(C)cc(C#N)c3)ncn2)nc1 [Example 23, 3-methyl-5-[6-(5-methylpyridin-2-yl)pyrimidin-4-yl]benzonitrile]
8.57 | COCc1cc(C#N)cc(-c2cc(-c3ccc(F)cn3)ncn2)c1 [Example 24, 3-[6-(5-fluoropyridin-2-yl)pyrimidin-4-yl]-5-(methoxymethyl)benzonitrile]

The next lines start with the molecule.

SMILES | pKi avg
N#Cc1cc(Cl)c(F)c(-c2ccnc(-n3cccn3)c2)c1 [Example 11, 3-chloro-4-fluoro-5-[2-(1H-pyrazol-1-yl)pyridin-4-yl]benzonitrile] | 8.16
N#Cc1cc(Cl)cc(-c2cc(-c3ccncn3)ncn2)c1 [Example 6, 3-(4,4′-bipyrimidin-6-yl)-5-chlorobenzonitrile] | 8.27
Cc1cc(C#N)cc(-c2cc(-c3ccccn3)ncn2)c1 [Example 4, 3-methyl-5-[6-(pyridin-2-yl)pyrimidin-4-yl]benzonitrile] | 8.56
N#Cc1cc(Cl)c(F)c(-c2cc(-n3cccn3)ccn2)c1 [Example 10, 3-chloro-4-fluoro-5-[4-(1H-pyrazol-1-yl)pyridin-2-yl]benzonitrile] | 8.37
N#Cc1cc(CF)cc(-c2cc(-n3cccn3)ncn2)c1 [Example 16, 3-(fluoromethyl)-5-[6-(1H-pyrazol-1-yl)pyrimidin-4-yl]benzonitrile] | 8.17
N#Cc1cc(Cl)c(F)c(-c2cc(-n3cc(F)cn3)ncn2)c1 [Example 12, 3-chloro-4-fluoro-5-[6-(4-fluoro-1H-pyrazol-1-yl)pyrimidin-4-yl]benzonitrile] | 8.00

These molecules were tested against hippocampal mGlu5 receptors (Rattus norvegicus (Rat), UniProt P31424) (assay: Ex vivo mGlu5 receptor occupancy). Conditions: Sprague Dawley rats, 1-10 mg/kg po, one hour post-dose, hippocampal CA3 sections, [3H]-M-MPEP autoradiography, read-out: estimated ED50 (receptor occupancy).
Sequence of hippocampal mGlu5 receptors (P31424 21-1203): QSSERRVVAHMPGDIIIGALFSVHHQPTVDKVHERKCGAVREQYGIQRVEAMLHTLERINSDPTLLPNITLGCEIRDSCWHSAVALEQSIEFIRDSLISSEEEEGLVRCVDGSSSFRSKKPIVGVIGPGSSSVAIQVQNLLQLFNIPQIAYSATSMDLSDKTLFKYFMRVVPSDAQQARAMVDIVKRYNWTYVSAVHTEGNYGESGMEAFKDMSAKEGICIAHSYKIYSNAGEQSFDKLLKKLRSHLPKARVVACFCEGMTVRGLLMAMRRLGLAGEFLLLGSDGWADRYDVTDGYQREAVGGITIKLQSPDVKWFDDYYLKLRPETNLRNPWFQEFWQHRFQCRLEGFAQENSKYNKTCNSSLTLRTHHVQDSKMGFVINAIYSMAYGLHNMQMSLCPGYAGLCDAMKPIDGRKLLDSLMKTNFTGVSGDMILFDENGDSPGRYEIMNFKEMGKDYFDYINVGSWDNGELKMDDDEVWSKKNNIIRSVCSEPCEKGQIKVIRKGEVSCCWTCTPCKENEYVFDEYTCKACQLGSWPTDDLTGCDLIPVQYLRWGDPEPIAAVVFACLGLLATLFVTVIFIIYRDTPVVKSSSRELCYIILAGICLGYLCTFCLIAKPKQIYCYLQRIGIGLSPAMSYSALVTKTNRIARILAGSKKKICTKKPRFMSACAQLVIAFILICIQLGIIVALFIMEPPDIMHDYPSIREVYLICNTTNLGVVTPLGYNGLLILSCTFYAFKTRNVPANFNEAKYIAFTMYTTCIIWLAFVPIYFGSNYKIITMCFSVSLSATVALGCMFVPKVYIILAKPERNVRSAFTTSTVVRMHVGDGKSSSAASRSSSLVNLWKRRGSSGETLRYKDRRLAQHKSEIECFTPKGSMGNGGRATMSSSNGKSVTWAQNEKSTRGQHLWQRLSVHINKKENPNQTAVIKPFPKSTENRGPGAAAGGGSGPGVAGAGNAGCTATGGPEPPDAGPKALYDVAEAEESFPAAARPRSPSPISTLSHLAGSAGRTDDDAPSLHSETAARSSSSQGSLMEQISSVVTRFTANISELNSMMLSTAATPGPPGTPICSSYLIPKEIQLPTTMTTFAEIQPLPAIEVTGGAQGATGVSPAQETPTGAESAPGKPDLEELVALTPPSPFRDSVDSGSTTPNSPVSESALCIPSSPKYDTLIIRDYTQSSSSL
Assay type: in vivo
Description: Ex Vivo mGlu5 Receptor Occupancy
One hour post-dose, animals were sacrificed and whole brains removed, rinsed and blot dried. A coronal block was cut containing the hippocampus and divided along the mid-line and rapidly frozen in isopentane for sectioning and autoradiography. Coronal half-brain sections were cut 20 μm thick, approximately 4 mm posterior to the bregma, to incorporate the hippocampal CA3 region. Three adjacent sections were mounted onto slides and incubated with 2 nM [^3H]-M-MPEP (total binding) or 2 nM [^3H]-M-MPEP and 10 μM fenobam (non-specific binding, Tocris bioscience, catalogue number 2386) for 10 min at room temperature. Binding was terminated by aspiration and washing with ice-cold assay buffer (4×5 min) and sections allowed to air dry. Levels of bound radioactivity in the sections were determined using a beta imager over a 16 h period. Occupancy was determined as mean specific binding with the vehicle treated control taken as 100%.

ED50 [mg/kg] | SMILES
2.8 | N#Cc1cc(Cl)cc(-c2cc(-c3ccccn3)ncn2)c1 [Example 2, 3-chloro-5-[6-(pyridin-2-yl)pyrimidin-4-yl]benzonitrile]
0.3 | N#Cc1cc(Cl)cc(-c2cc(-c3ccc(F)cn3)ncn2)c1 [Example 17, 3-chloro-5-[6-(5-fluoropyridin-2-yl)pyrimidin-4-yl]benzonitrile]
2.9 | N#Cc1cc(C#N)cc(-c2cc(-c3ccc(F)cn3)ncn2)c1 [Example 18, 5-[6-(5-fluoropyridin-2-yl)pyrimidin-4-yl]benzene-1,3-dicarbonitrile]

The molecules below were run on Male CD-1 mice (assay: In vivo efficacy test - mouse marble burying). Conditions: 10 and 30 mg/kg po versus vehicle group, dosed 30 min prior to test, one-way ANOVA with Dunnett's post-hoc test.
Excerpt: In Vivo Efficacy Test—Marble Burying

SMILES | number of marbles buried
N#Cc1cc(Cl)cc(-c2cc(-c3ccc(F)cn3)ncn2)c1 [Example 17, 3-chloro-5-[6-(5-fluoropyridin-2-yl)pyrimidin-4-yl]benzonitrile] | statistically significant decrease
